The structures appear in SMILES notation.

Experiment in all cases: ITC
One assay concerns the target T1, smVicK CA (271-450) (Streptococcus mutans, UniProt Q8DT64).
T1 construct: gene covS
It counts as binding.

A further assay addresses T2, lpWalK (370-624).
T2 construct: gene walK; catalytic region DHp + CA domains, residues 370-624, N-terminal His tag, pET-His, E. coli BL21(DE3); DHp homodimer
The format is binding, Lactiplantibacillus plantarum. Conditions: 20 mM Tris-HCl pH 8.0, 5 mM MgCl2, 25 °C, fixed 1:1 model.

Another assay has as its target T3, smVicK (196-450) (Streptococcus mutans, UniProt Q8DT64).
T3 construct: gene covS; DHp + CA domains, residues 196-450, pET-His vector, expressed in E. coli and purified as lpWalK
It counts as binding.

T3 sequence (Q8DT64 entry or part of it): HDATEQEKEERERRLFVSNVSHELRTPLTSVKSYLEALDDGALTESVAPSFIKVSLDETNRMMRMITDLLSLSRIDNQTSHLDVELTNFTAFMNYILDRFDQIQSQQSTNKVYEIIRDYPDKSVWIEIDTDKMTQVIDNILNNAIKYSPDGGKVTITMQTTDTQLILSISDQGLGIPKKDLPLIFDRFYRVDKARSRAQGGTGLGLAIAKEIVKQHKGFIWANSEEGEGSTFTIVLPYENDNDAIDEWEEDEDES
T1 sequence (Q8DT64 entry or part of it): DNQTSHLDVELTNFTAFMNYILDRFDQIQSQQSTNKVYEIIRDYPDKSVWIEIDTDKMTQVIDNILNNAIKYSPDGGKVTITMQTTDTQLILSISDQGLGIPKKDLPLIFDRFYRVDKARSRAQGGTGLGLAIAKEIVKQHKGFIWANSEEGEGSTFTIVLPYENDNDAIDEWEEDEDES

On to `Nc1ncnc2c1ncn2[C@@H]1O[C@H](COP(=O)(O)OP(=O)(O)O)[C@@H](O)[C@H]1O` [ADP], for which the Kd stood at 474 ± 97.5 µM on smVicK CA (271-450), 1200 ± 17 µM at lpWalK (370-624) and 701 ± 165 µM at smVicK (196-450).
On to `Nc1ncnc2c1ncn2[C@@H]1O[C@H](COP(=O)(O)OP(=O)(O)NP(=O)(O)O)[C@@H](O)[C@H]1O` [AMPPNP], for which the Kd worked out at 292 ± 15.2 µM at smVicK CA (271-450), 450 ± 6.36 µM on lpWalK (370-624) (gamma-phosphate not defined in the crystal) and 538 ± 32 µM at smVicK (196-450).
On to `Nc1ncnc2c1ncn2[C@@H]1O[C@H](COP(=O)(O)O)[C@@H](O)[C@H]1O` [AMP], for which the Kd on lpWalK (370-624) amounted to 1280 ± 95.5 µM.

Source of the values: PMC5633905, “Conformational dynamics of the essential sensor histidine kinase WalK” (Acta Crystallographica. Section D, Structural Biology, 2017).
